Test results published in patent publication US11702404B2, “GLP-1R modulating compounds” (priority 2019, dated 2023).

Columns and labels:
[1] = Microsomal stability, human liver microsomes (predicted hepatic clearance); settings: predicted from in vitro microsomal stability data
GLP-1R = GLP-1R (Homo sapiens, UniProt P43220); experiment: GLP-1R activation: cAMP increase in CHO cells stably expressing GLP-1R; format: cell-based; settings: cAMP increase, CHO cells stably expressing GLP-1R, 10 point dose response, 30 minutes incubation; read-out: EC50
Chain of GLP-1R (P43220 24-463): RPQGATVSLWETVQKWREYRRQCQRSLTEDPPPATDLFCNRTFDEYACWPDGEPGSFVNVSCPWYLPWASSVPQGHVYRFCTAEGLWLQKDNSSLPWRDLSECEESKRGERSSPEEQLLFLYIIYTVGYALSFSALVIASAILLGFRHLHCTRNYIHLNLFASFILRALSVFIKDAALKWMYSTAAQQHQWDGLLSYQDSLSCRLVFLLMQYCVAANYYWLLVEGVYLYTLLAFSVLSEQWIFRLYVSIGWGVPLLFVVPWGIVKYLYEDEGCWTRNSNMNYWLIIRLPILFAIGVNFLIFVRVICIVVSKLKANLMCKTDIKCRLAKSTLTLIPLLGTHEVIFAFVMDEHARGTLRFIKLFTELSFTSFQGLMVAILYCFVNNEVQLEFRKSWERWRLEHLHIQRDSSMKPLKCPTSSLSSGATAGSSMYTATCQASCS

Row | Predicted Hepatic Clearance (Pred. Cl.) [1] [mL/min/kg] | EC50 (GLP-1R) [nM] | SMILES
1 | <1.83 | 273 | COCCn1c(Cc2ccc(-c3cccc(OCc4ccc(C#N)cc4F)n3)cc2-c2ccsc2)nc2ccc(C(=O)O)cc21 [Example 176, 2-(4-(6-((4-cyano-2-fluorobenzyl)oxy)pyridin-2-yl)-2-(thiophen-3-yl)benzyl)-1-(2-methoxyethyl)-1H-benzo[d]imidazole-6-carboxylic acid]
2 | 2.83 | 15.5 | COCCn1c(Cc2ccc(-c3cccc(OCc4ccc(C#N)cc4F)n3)cc2O)nc2ccc(C(=O)O)cc21 [Example 181, 2-(4-(6-((4-cyano-2-fluorobenzyl)oxy)pyridin-2-yl)-2-hydroxybenzyl)-1-(2-methoxyethyl)-1H-benzo[d]imidazole-6-carboxylic acid]
3 | 7.67 | 449 | COCCn1c(Cc2ccc(-c3ccccc3OCc3ccc(C#N)cc3F)cc2F)nc2ccc(C(=O)O)cc21 [Example 182, 2-((2′-((4-cyano-2-fluorobenzyl)oxy)-3-fluoro-[1,1′-biphenyl]-4-yl)methyl)-1-(2-methoxyethyl)-1H-benzo[d]imidazole-carboxylic acid]
4 | 17.5 | 36.9 | COCCn1c(Cc2ccc(-c3cccc(OCc4ccc(C#N)cc4F)n3)cc2-c2cccc(OC)c2)nc2ccc(C(=O)O)cc21 [Example 188, 2-((5-(6-((4-cyano-2-fluorobenzyl)oxy)pyridin-2-yl)-3′-methoxy-[1,1′-biphenyl]-2-yl)methyl)-1-(2-methoxyethyl)-1H-benzo[d]imidazole-6-carboxylic acid]
5 | 8.5 | 3050 | COCCn1c(Cc2c(F)cc(-c3cncnc3OCc3ccc(C#N)cc3F)cc2F)nc2ccc(C(=O)O)cc21 [Example 189, 2-(4-(4-((4-cyano-2-fluorobenzyl)oxy)pyrimidin-5-yl)-2,6-difluorobenzyl)-1-(2-methoxyethyl)-1H-benzo[d]imidazole-carboxylic acid]
6 | 13 | 437 | COCCn1c(Cc2c(F)cc(-c3cccnc3OCc3ccccc3F)cc2F)nc2ccc(C(=O)O)cc21 [Example 192, 2-(2,6-difluoro-4-(2-((2-fluorobenzyl)oxy)pyridin-3-yl)benzyl)-1-(2-methoxyethyl)-1H-benzo[d]imidazole-carboxylic acid]
7 | 6.83 | 131 | COCCn1c(Cc2ccc(-c3cccc(OCc4ccc(C#N)cc4F)n3)cc2-c2ccc(C#N)cc2)nc2ccc(C(=O)O)cc21 [Example 193, 2-((4′-cyano-5-(6-((4-cyano-2-fluorobenzyl)oxy)pyridin-2-yl)-[1,1′-biphenyl]-2-yl)methyl)-1-(2-methoxyethyl)-1H-benzo[d]imidazole-6-carboxylic acid]
8 | 9.5 | 15.8 | COCCn1c(Cc2ccc(-c3cccc(NCc4ccc(C#N)cc4OC)n3)cc2F)nc2ccc(C(=O)O)cc21 [Example 195]

The next lines start with the compound.

Row | SMILES | Predicted Hepatic Clearance (Pred. Cl.) [1] [mL/min/kg] | EC50 (GLP-1R) [nM]
9 | COCCn1c(Cc2ccc(-c3cccc(OCc4ccc(C#N)cc4F)n3)cc2C2=CCN(C(=O)OC(C)(C)C)CC2)nc2ccc(C(=O)O)cc21 [Example 173, 2-(2-(1-(tert-butoxycarbonyl)-1,2,3,6-tetrahydropyridin-4-yl)-4-(6-((4-cyano-2-fluorobenzyl)oxy)pyridin-2-yl)benzyl)-1-(2-methoxyethyl)-1H-benzo[d]imidazole-6-carboxylic acid] | 5 | 774
10 | COCCn1c(Cc2c(F)cc(-c3cccnc3OCc3ccc(Cl)cc3F)cc2F)nc2ccc(C(=O)O)cc21 [Example 174, 2-(4-(2-((4-chloro-2-fluorobenzyl)oxy)pyridin-3-yl)-2,6-difluorobenzyl)-1-(2-methoxyethyl)-1H-benzo[d]imidazole-carboxylic acid] | 5.67 | 32.9
11 | COCCn1c(Cc2ccc(-c3cccc(OCc4ccc(C#N)cc4F)n3)cc2-c2ccncc2)nc2ccc(C(=O)O)cc21 [Example 175, 2-(4-(6-((4-cyano-2-fluorobenzyl)oxy)pyridin-2-yl)-2-(pyridin-4-yl)benzyl)-1-(2-methoxyethyl)-1H-benzo[d]imidazole-6-carboxylic acid] | 15.7 | 9270
12 | COCCn1c(Cc2c(F)cc(-c3nccnc3OCc3ccc(C#N)cc3F)cc2F)nc2ccc(C(=O)O)cc21 [Example 177, 2-(4-(3-((4-cyano-2-fluorobenzyl)oxy)pyrazin-2-yl)-2,6-difluorobenzyl)-1-(2-methoxyethyl)-1H-benzo[d]imidazole-carboxylic acid] | 7 | 335
13 | COCCn1c(Cc2ccc(-c3cccc(OCc4ccc(C#N)cc4F)n3)cc2C2CC2)nc2ccc(C(=O)O)cc21 [Example 178, 2-(4-(6-((4-cyano-2-fluorobenzyl)oxy)pyridin-2-yl)-2-cyclopropylbenzyl)-1-(2-methoxyethyl)-1H-benzo[d]imidazole-6-carboxylic acid] | 9.83 | 32.5
14 | COCCn1c(Cc2c(F)cc(-c3cccnc3OCc3ccc(C#N)cc3F)cc2F)nc2ccc(C(=O)O)cc21 [Example 179, 2-(4-(2-((4-cyano-2-fluorobenzyl)oxy)pyridin-3-yl)-2,6-difluorobenzyl)-1-(2-methoxyethyl)-1H-benzo[d]imidazole-carboxylic acid] | 3.5 | 45.6
15 | COCCn1c(Cc2ccc(-c3cccnc3OCc3ccc(C#N)cc3F)cc2F)nc2ccc(C(=O)O)cc21 [Example 180, 2-(4-(2-((4-cyano-2-fluorobenzyl)oxy)pyridin-3-yl)-2-fluorobenzyl)-1-(2-methoxyethyl)-1H-benzo[d]imidazole-carboxylic acid] | 6.33 | 257
16 | COCCn1c(Cc2ccc(-c3cccc(OCc4ccc(C#N)cc4F)n3)cc2-c2ccccc2)nc2ccc(C(=O)O)cc21 [Example 184, 2-((5-(6-((4-cyano-2-fluorobenzyl)oxy)pyridin-2-yl)-[1,1′-biphenyl]-2-yl)methyl)-1-(2-methoxyethyl)-1H-benzo[d]imidazole-6-carboxylic acid] | <1.83 | 369
17 | COCCn1c(Cc2c(F)cc(-c3cccnc3OCc3ccccc3)cc2F)nc2ccc(C(=O)O)cc21 [Example 186, 2-(4-(2-(benzyloxy)pyridin-3-yl)-2,6-difluorobenzyl)-1-(2-methoxyethyl)-1H-benzo[d]imidazole-carboxylic acid] | 11.5 | 812
18 | COCCn1c(Cc2ccc(-c3cccc(OCc4ccc(C#N)cc4F)n3)cc2-c2cccc([N+](=O)[O-])c2)nc2ccc(C(=O)O)cc21 [Example 187, 2-((5-(6-((4-cyano-2-fluorobenzyl)oxy)pyridin-2-yl)-3′-nitro-[1,1′-biphenyl]-2-yl)methyl)-1-(2-methoxyethyl)-1H-benzo[d]imidazole-6-carboxylic acid] | 14.8 | 723
19 | COCCn1c(Cc2ccc(-c3cccc(OCc4ccc(C#N)cc4F)n3)cc2-c2cnn(C(F)F)c2)nc2ccc(C(=O)O)cc21 [Example 190, 2-(4-(6-((4-cyano-2-fluorobenzyl)oxy)pyridin-2-yl)-2-(1-(difluoromethyl)-1H-pyrazol-4-yl)benzyl)-1-(2-methoxyethyl)-1H-benzo[d]imidazole-6-carboxylic acid] | 6.83 | 252
20 | N#Cc1ccc(COc2cccc(-c3ccc(Cc4nc5ccc(C(=O)O)cc5n4C[C@@H]4CCCO4)c(F)c3)n2)c(F)c1 [Example 194, (S)-2-(4-(6-((4-cyano-2-fluorobenzyl)oxy)pyridin-2-yl)-2-fluorobenzyl)-1-((tetrahydrofuran-2-yl)methyl)-1H-benzo[d]imidazole-carboxylic acid] | 4.67 | 0.86
21 | N#Cc1ccc(COc2cccc(-c3ccc(Cc4nc5ccc(C(=O)O)cc5n4C[C@H]4CCOC4)c(F)c3)n2)c(F)c1 [Example 196, (R)-2-(4-(6-((4-cyano-2-fluorobenzyl)oxy)pyridin-2-yl)-2-fluorobenzyl)-1-((tetrahydrofuran-3-yl)methyl)-1H-benzo[d]imidazole-carboxylic acid] | 5.83 | 4.61
22 | N#Cc1ccc(COc2cccc(-c3ccc(Cc4nc5ccc(C(=O)O)cc5n4C[C@@H]4CCOC4)c(F)c3)n2)c(F)c1 [Example 197, (S)-2-(4-(6-((4-cyano-2-fluorobenzyl)oxy)pyridin-2-yl)-2-fluorobenzyl)-1-((tetrahydrofuran-3-yl)methyl)-1H-benzo[d]imidazole-carboxylic acid] | 6 | 7.77
23 | N#Cc1ccc(COc2cccc(-c3ccc(Cc4nc5ccc(C(=O)O)cc5n4C[C@H]4CCCO4)c(F)c3)n2)c(F)c1 [Example 198, (R)-2-(4-(6-((4-cyano-2-fluorobenzyl)oxy)pyridin-2-yl)-2-fluorobenzyl)-1-((tetrahydrofuran-2-yl)methyl)-1H-benzo[d]imidazole-carboxylic acid] | 5.17 | 8.69
24 | N#Cc1ccc(COc2ncccc2-c2cc(F)c(Cc3nc4ccc(C(=O)O)cc4n3CC3(CF)CC3)c(F)c2)c(F)c1 [Example 199, 2-(4-(2-((4-cyano-2-fluorobenzyl)oxy)pyridin-3-yl)-2,6-difluorobenzyl)-1-((1-(fluoromethyl)cyclopropyl)methyl)-1H-benzo[d]imidazole-carboxylic acid] | <1.83 | 20.8
25 | COCCn1c(Cc2ccc(-c3cccc(OCc4ccc(C#N)cc4F)n3)cc2F)nc2ccc(C(=O)O)nc21 [Example 200, 2-(4-(6-((4-cyano-2-fluorobenzyl)oxy)pyridin-2-yl)-2-fluorobenzyl)-3-(2-methoxyethyl)-3H-imidazo[4,5-b]pyridine-5-carboxylic acid] | 2.83 | 18
